From patent publication US8362008B2 (The University Of Edinburgh, priority 2007, dated 2013)
Counter-ions that a name gives are not always drawn.

Legend:
human 11β-HSD2 = target: T1, human 11β-HSD2 (Homo sapiens, UniProt P80365); assay: Cellular in vitro 11β-HSD2 enzyme inhibition assay (CHO cells, TLC/phosphoimager); assay type: cell-based; conditions: CHO cells stably transfected with human 11β-HSD2; Table 1
T1 construct: CHO cells stably transfected with the full-length gene coding for human 11β-HSD2 were used; expressed in transfected cells; host or cells: CHO
T1 sequence (P80365 1-405): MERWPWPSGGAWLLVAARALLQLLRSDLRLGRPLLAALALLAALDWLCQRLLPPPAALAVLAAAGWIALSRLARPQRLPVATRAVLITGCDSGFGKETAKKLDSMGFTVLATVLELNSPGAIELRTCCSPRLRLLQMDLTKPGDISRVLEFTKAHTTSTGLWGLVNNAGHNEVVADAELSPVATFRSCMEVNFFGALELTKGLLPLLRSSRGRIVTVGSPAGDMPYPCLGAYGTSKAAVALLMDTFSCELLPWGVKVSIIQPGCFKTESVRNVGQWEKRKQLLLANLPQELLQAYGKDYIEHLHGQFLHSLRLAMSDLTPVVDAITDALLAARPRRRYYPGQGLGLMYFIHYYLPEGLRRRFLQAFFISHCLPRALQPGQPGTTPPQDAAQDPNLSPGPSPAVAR
Protocol: Cellular In Vitro 11β-HSD2 Enzyme Inhibition Assay
For measurement of inhibition of 11β-HSD2, CHO cells stably transfected with the full-length gene coding for human 11β-HSD2 were used. Assays were carried out in 96-well microplates containing 1×10^5 cells/well. Controls and compounds were plated as above, so that the final DMSO concentration in each well was 1%. To initiate the assay, 90 μL of a solution of HAMS F-12 medium containing 1% glutamine, 1% penicillin and streptomycin, and 22 nM tritiated cortisol was added to each well of the assay plate. The plate was then incubated in 5% CO2, 95% O2 at 37° C. for 16 hours.
The assay solutions were transferred to glass tubes and 20 μL ethyl acetate added to each tube. Each tube was vortexed thoroughly and the upper layer containing the tritiated steroid transferred to a fresh glass tube. The solvent was evaporated by placing the tubes in a heating block at 65° C. under a stream of Nitrogen gas. 20 μL ethanol was added to each of the dried samples and vortexed briefly. Each sample was applied to a silica TLC plate and the plate dried. The plate was placed vertically in a glass tank containing 92% chloroform:8% ethanol and the solvent allowed to rise up the plate. The plate was dried, placed in an imaging cassette, and overlayed with a tritium imaging plate for 1-2 days. The amount of enzyme inhibition in each sample was determined by measuring the intensity of the substrate and product spots using a phosphoimager.
IC50 values for inhibitors were determined as described for 11β-HSD1.

human 11β-HSD1 enzyme = target: T2, human 11β-HSD1 enzyme (Homo sapiens, UniProt P28845); assay: Cellular in vitro 11β-HSD1 enzyme inhibition assay (SPA, HEK293/11β-HSD1 cells); assay type: cell-based
T2 construct: stably transfected with a construct containing the full-length gene coding for the human 11β-HSD1 enzyme; expressed in transfected cells; host or cells: HEK293 (HEK293/11β-HSD1 cells)
In short: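 Stably transfected HEK293 cells expressing full-length human 11β-HSD1 were plated 24 h, then incubated with compound 2 h at 37 °C; cortisol formed was quantified by SPA with anti-cortisol antibody. Percent inhibition used no-cell (minimum) and no-compound (maximum) wells; IC50 from four-parameter logistic fit.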

[1] = HEK293, less than or equal to 1000 nM (1 μM)
[2] = HEK293, more than 1000 nM (1.0 μM) and less than or equal to 30 μM

T2 sequence (P28845 whole entry): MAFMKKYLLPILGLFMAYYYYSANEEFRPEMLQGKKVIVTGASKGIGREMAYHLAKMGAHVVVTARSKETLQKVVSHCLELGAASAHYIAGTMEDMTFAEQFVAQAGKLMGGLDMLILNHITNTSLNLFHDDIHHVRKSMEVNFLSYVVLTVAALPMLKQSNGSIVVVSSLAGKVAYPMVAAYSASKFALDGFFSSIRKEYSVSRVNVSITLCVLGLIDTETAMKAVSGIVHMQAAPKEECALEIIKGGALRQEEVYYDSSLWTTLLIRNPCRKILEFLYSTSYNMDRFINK

| Compound | IC50 (human 11β-HSD1 enzyme; [1]) | IC50 (human 11β-HSD1 enzyme; [2]) | also measured |
| --- | --- | --- | --- |
| CCc1cc(C(=O)N2CC3(C)CC2CC(C)(C)C3)cs1 (stereo not shown) [AA-014, (5-Ethyl-thiophen-3-yl)-(1,3,3-trimethyl-6-aza-bicyclo[3.2.1]oct-6-yl)-methanone] | ≤ 1000 nM |  | IC50 (human 11β-HSD2): > 10000 nM; IC50 (human 11β-HSD1 enzyme; HEK293 cells stably transfected with human 11β-HSD1, Table 1): 4 nM |
| CNC(=O)N1CCC(c2cc(C(=O)N3CCCCC3c3ccccc3)cs2)CC1 (stereo not shown) [CC-132] | ≤ 1000 nM |  |  |
| O=C(c1csc(C2CCOCC2)c1)N1CCCCC1 [CC-001, Piperidin-1-yl-[5-(tetrahydro-pyran-4-yl)-thiophen-3-yl]-methanone] |  | 1000 to 30000 nM |  |
| O=C(CO)N1CCC(c2cc(C(=O)N3CCCC4CCCCC43)cs2)CC1 (stereo not shown) [CC-054] | ≤ 1000 nM |  |  |
| O=C(c1csc(C2CCOCC2)c1)N1CCCC2CCCCC21 (stereo not shown) [CC-028] | ≤ 1000 nM |  |  |
| O=C(OCc1ccccc1)N1CCC(c2cc(C(=O)N3CCCC4CCCCC43)cs2)CC1 (stereo not shown) [CC-032] |  | 1000 to 30000 nM |  |
| O=C(c1csc(C2CCOCC2)c1)N1CCCC(F)(F)CC1 |  | 1000 to 30000 nM |  |
| O=C(c1csc(C2CCOCC2)c1)N1CCC[C@@H]2CCCC[C@@H]21 (single isomer, unassigned) [CC-140, cis-(octahydro-quinolin-1-yl)-[5-(tetrahydro-pyran-4-yl)-thiophen-3-yl]-methanone] | ≤ 1000 nM |  |  |
| O=C(c1csc(C2CCN(c3nc4ccccc4o3)CC2)c1)N1CCCC2CCCCC21 (stereo not shown) [CC-129] |  | 1000 to 30000 nM |  |
| Cn1cc(CN2CCC(c3cc(C(=O)N4CCC[C@@H]5CCCC[C@@H]54)cs3)CC2)cn1 (racemic) [CC-152, cis-1-(1-Methyl-1H-pyrazol-4-ylmethyl)-4-[4-(octahydro-quinoline-1-carbonyl)-thiophen-2-yl]-piperidinium formate] |  | 1000 to 30000 nM |  |
| CN1CCC(c2cc(C(=O)N3CCC[C@@H]4CCCC[C@@H]43)cs2)CC1 (relative stereo) [CC-038, cis-[5-(1-Methyl-piperidin-4-yl)-thiophen-3-yl]-(octahydro-quinolin-1-yl)-methanone] |  | 1000 to 30000 nM |  |
| O=C(c1csc(C2CCCCC2)c1)N1CCCC2CCCCC21 (stereo not shown) [DD-003] |  | 1000 to 30000 nM |  |
| O=C(CO)N1CC=C(c2cc(C(=O)N3CCCC4CCCCC43)cs2)CC1 (stereo not shown) [CC-090] | ≤ 1000 nM |  |  |
| O=C(c1csc(C2=CCNCC2)c1)N1CCC[C@@H]2CCCC[C@@H]21 (relative stereo) [CC-046, cis-(octahydro-quinolin-1-yl)-[5-(1,2,3,6-tetrahydro-pyridin-4-yl)-thiophen-3-yl]-methanone] | ≤ 1000 nM |  |  |
| O=C(NCCCO)N1CCC(c2cc(C(=O)N3CCCC4CCCCC43)cs2)CC1 (stereo not shown) [CC-161] | ≤ 1000 nM |  |  |
| CC1(C)CC2CC(C)(CN2C(=O)c2csc(CC(F)(F)F)c2)C1 (stereo not shown) [AA-018] | ≤ 1000 nM |  |  |
| O=C(CN1CCOCC1)N1CCC(c2cc(C(=O)N3CCCC4CCCCC43)cs2)CC1 (stereo not shown) [CC-059] | ≤ 1000 nM |  |  |
| CC1(C)CCCN(C(=O)c2csc(C3CCOCC3)c2)CC1 [CC-021] | ≤ 1000 nM |  |  |
| CC1(C)CCCN(C(=O)c2csc(C3CCCCC3)c2)C1 [DD-001] | ≤ 1000 nM |  |  |
| O=C(c1csc(C2CCNCC2)c1)N1CCC[C@@H]2CCCC[C@@H]21 (single isomer, unassigned) [CC-039, cis-(octahydro-quinolin-1-yl)-(5-piperidin-4-yl-thiophen-3-yl)-methanone] |  | 1000 to 30000 nM |  |
| O=C(c1csc(C2CCNCC2)c1)N1CCCC2CCCCC21 (stereo not shown) [CC-040] | ≤ 1000 nM |  |  |
| O=C(OCc1ccccc1)N1CCC(c2cc(C(=O)N3CCCC4(CCCCC4)C3)cs2)CC1 [CC-078] |  | 1000 to 30000 nM |  |
| CC(=O)N1CCC(c2cc(C(=O)N3CCCCC(C)(C)C3)cs2)CC1 [CC-026] | ≤ 1000 nM |  |  |
| CC(C)CS(=O)(=O)N1CCC(c2cc(C(=O)N3CCCC4CCCCC43)cs2)CC1 (stereo not shown) [CC-105] |  | 1000 to 30000 nM |  |

| Compound | IC50 (human 11β-HSD1 enzyme; [1]) | IC50 (human 11β-HSD1 enzyme; [2]) | also measured |
| --- | --- | --- | --- |
| O=C(CCCN1CCCCC1)N1CCC(c2cc(C(=O)N3CCCC4CCCCC43)cs2)CC1 (stereo not shown) [CC-082] |  | 1000 to 30000 nM |  |
| Cn1ccnc1CN1CCC(c2cc(C(=O)N3CCCC4CCCCC43)cs2)CC1 (stereo not shown) [CC-154] | ≤ 1000 nM |  |  |
| CC1(C)CC2CC(C)(CN2C(=O)c2csc(C3CCNCC3)c2)C1 (single isomer, unassigned) [CC-075, (5-Piperidin-4-yl-thiophen-3-yl)-(1,3,3-trimethyl-6-aza-bicyclo[3.2.1]oct-6-yl)-methanone] | ≤ 1000 nM |  |  |
| CN(C)CC(=O)N1CCC(c2cc(C(=O)N3CCCC4CCCCC43)cs2)CC1 (stereo not shown) [CC-063] |  | 1000 to 30000 nM |  |
| O=C(c1csc(C2=CCNCC2)c1)N1CCCC2CCCCC21 (stereo not shown) [CC-047] | ≤ 1000 nM |  |  |
| COC(=O)N1CCC(c2cc(C(=O)N3CCC[C@@H]4CCCC[C@@H]43)cs2)CC1 (relative stereo) [CC-066, cis-4-[4-(Octahydro-quinoline-1-carbonyl)-thiophen-2-yl]-piperidine-1-carboxylic acid methyl ester] | ≤ 1000 nM |  |  |
| CC1(C)CC2CC(C)(CN2C(=O)c2csc(C3CCCNC3)c2)C1 (stereo not shown) [CC-073] | ≤ 1000 nM |  |  |
| CNC(=O)C(C)(C)N1CCC(c2cc(C(=O)N3CCCC4CCCCC43)cs2)CC1 (stereo not shown) [CC-171] | ≤ 1000 nM |  |  |
| O=C(c1csc(C2CCNCC2)c1)N1CCCCC1c1ccccc1 (single isomer, unassigned) [CC-130, cis-(2-Phenyl-piperidin-1-yl)-(5-piperidin-4-yl-thiophen-3-yl) methanone] | ≤ 1000 nM |  |  |
| CC1CCCCN1C(=O)c1csc(C2CCOCC2)c1 (stereo not shown) [CC-002] |  | 1000 to 30000 nM |  |
| CC(=O)N1CCC(c2cc(C(=O)N3CCC[C@@H]4CCCC[C@@H]43)cs2)CC1 (relative stereo) [CC-035, cis-1-{4-[4-(Octahydro-quinoline-1-carbonyl)-thiophen-2-yl]-piperidin-1-yl}-ethanone] | ≤ 1000 nM |  |  |
| NC(=O)N1CCC(c2cc(C(=O)N3CCCC4CCCCC43)cs2)CC1 (stereo not shown) [CC-144] | ≤ 1000 nM |  |  |
| CC(=O)N1CCC(c2cc(C(=O)N3CCC[C@@H]4CCCC[C@@H]43)cs2)CC1 (single isomer, unassigned) [CC-114, cis-1-{4-[4-(Octahydro-quinoline-1-carbonyl)-thiophen-2-yl]-piperidin-1-yl}-ethanone] | ≤ 1000 nM |  |  |
| CC(=O)N1CCC(c2cc(C(=O)N3CCN4CCCCC4C3)cs2)CC1 (stereo not shown) [CC-037] |  | 1000 to 30000 nM |  |
| O=C(Cc1ccccn1)N1CCC(c2cc(C(=O)N3CCCC4CCCCC43)cs2)CC1 (stereo not shown) [CC-133] | ≤ 1000 nM |  |  |
| CC(C)(C(N)=O)N1CCC(c2cc(C(=O)N3CCCC4CCCCC43)cs2)CC1 (stereo not shown) [CC-174] | ≤ 1000 nM |  |  |
| O=C1CNCCN1c1cc(C(=O)N2CCC[C@@H]3CCCC[C@@H]32)cs1 (relative stereo) [CC-048, cis-1-[4-(Octahydro-quinoline-1-carbonyl)-thiophen-2-yl]-piperazin-2-one] |  | 1000 to 30000 nM |  |
| CC(C)C(=O)N1CCC(c2cc(C(=O)N3CCCC4CCCCC43)cs2)CC1 (stereo not shown) [CC-081] | ≤ 1000 nM |  |  |
| O=C(c1csc(C2CCS(=O)(=O)CC2)c1)N1CCC[C@@H]2CCCC[C@@H]21 (racemic) [CC-138, cis-[5-(1,1-Dioxo-hexahydro-thiopyran-4-yl)-thiophen-3-yl]-(octahydro-quinolin-1-yl)methanone] | ≤ 1000 nM |  |  |
| COC(=O)N1CCC(c2cc(C(=O)N3CCCC(C)(C)CC3)cs2)CC1 [CC-094] |  | 1000 to 30000 nM |  |
| CC(C)(C)C(=O)N1CCC(c2cc(C(=O)N3CCCC4CCCCC43)cs2)CC1 (stereo not shown) [CC-100] |  | 1000 to 30000 nM |  |
| CC1(C)CC2CC(C)(CN2C(=O)c2csc(C3=CCNCC3)c2)C1 (stereo not shown) [CC-074] | ≤ 1000 nM |  |  |
| CS(=O)(=O)NCCC(=O)N1CCC(c2cc(C(=O)N3CCCCC3c3ccccc3)cs2)CC1 (stereo not shown) [CC-128] |  | 1000 to 30000 nM |  |
